This note sets out measurements from publication PMC8585947, “Structure of Escherichia coli cytochrome bd-II type oxidase with bound aurachin D” (Nature Communications, 2021).

As a reminder, the IC50 is the concentration needed to halve the response being measured. A low value points to higher potency.

Test [1] deals with T1, cytochrome bd-II oxidase subunit AppC (Escherichia coli, UniProt P26459).
T1 construct: bd-II oxidase (AppC, AppB, AppX), C-terminal His-tag on AppC; with AppB, AppX
Nature of the test: duroquinol:O2 oxidoreductase activity of isolated bd-II, Clark-type oxygen electrode. It counts as biochemical.

The target of test [2] is T1, cytochrome bd-II oxidase subunit AppC. Description: duroquinol:O2 oxidoreductase inhibition (Clark electrode). It is filed as biochemical.
Test [3] deals with cytochrome bd-II oxidase subunit AppC (Escherichia coli, UniProt P26459, D239N). Description: biochemical.
The target in test [4] is cytochrome bd-II oxidase subunit AppB (Escherichia coli, UniProt P26458).
Sequence of cytochrome bd-II oxidase subunit AppB (P26458 whole entry): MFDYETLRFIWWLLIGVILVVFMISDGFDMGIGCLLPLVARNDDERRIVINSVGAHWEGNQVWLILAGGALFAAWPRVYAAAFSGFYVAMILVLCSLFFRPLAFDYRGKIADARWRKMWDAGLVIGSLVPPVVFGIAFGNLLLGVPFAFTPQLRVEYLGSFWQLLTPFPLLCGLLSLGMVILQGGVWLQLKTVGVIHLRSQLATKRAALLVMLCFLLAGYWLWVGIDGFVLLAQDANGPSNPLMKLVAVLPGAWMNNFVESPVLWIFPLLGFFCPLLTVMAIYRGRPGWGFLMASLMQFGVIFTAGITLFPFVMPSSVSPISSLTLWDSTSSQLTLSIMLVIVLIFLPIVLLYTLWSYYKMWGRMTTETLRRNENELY
Sequence of cytochrome bd-II oxidase subunit AppB (P26459 whole entry partner): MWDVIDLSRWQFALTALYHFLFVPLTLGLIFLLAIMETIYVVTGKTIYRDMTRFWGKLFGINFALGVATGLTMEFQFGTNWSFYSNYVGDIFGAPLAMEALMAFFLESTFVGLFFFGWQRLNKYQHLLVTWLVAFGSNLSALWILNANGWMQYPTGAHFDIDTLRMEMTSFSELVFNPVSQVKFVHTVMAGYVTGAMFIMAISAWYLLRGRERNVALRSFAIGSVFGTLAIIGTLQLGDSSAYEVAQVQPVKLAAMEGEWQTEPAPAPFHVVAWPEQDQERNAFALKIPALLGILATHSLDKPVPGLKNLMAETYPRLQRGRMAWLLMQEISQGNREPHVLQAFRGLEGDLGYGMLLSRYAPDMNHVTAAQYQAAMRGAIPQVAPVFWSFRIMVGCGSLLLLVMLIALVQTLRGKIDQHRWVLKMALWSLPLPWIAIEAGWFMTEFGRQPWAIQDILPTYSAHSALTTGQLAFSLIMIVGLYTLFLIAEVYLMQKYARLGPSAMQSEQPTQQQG
Sequence of cytochrome bd-II oxidase subunit AppB (P24244 whole entry partner): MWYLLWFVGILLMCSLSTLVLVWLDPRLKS

T1 sequence (P24244 whole entry): as the sequence (P24244 whole entry partner) above
T1 sequence (P26458 whole entry, further chain): as the sequence (P26458 whole entry) above
T1 sequence (P26459 whole entry): as the sequence (P26459 whole entry partner) above
Sequence of cytochrome bd-II oxidase subunit AppC (Escherichia coli, UniProt P26459, D239N) (P26459 whole entry, stated change not applied): as the sequence (P26459 whole entry partner) above
Sequence of cytochrome bd-II oxidase subunit AppC (Escherichia coli, UniProt P26459, D239N) (P24244 whole entry, further chain): as the sequence (P24244 whole entry partner) above
Sequence of cytochrome bd-II oxidase subunit AppC (Escherichia coli, UniProt P26459, D239N) (P26458 whole entry, further chain): as the sequence (P26458 whole entry) above

`CC(C)=CCC/C(C)=C/CC/C(C)=C/Cc1c(C)n(O)c2ccccc2c1=O` [aurachin C] registered an IC50 in test [1] of 7.1 nM. Turning to `CC(C)=CCC/C(C)=C/CC/C(C)=C\Cc1c(C)[nH]c2ccccc2c1=O` [aurachin D], the IC50 in test [2] was determined as 11.1 nM; in test [3], 60.7 nM. Turning to `COC1=C(OC)C(=O)C(C/C=C(\C)CC/C=C(\C)CC/C=C(\C)CC/C=C(\C)CC/C=C(\C)CC/C=C(\C)CC/C=C(\C)CCC=C(C)C)=C(C)C1=O` [ubiquinone-8], in test [4], the “cryo-EM structure at 3.0 Å” value is reported as “cleft towards the periplasmic space filled with an extended electron density that was perfectly fitted as ubiquinone-8”.
